ChEMBL document CHEMBL2429800, “A new trypsin inhibitory phthalic acid ester from Heliotropium strigosum” (Med Chem Res, 2013)

Target: Trypsin (Homo sapiens, UniProt P07477+P07478+P35030)
Assay: Competitive inhibition of trypsin (unknown origin) using […] as substrate incubated for 20 mins prior to substrate addition by Dixon plot/ Lineweaver-Burk plot analysis
Type: protein assay

SMILES	Ki
O=S(=O)(F)Cc1ccccc1 [PHENYLMETHYLSULFONYLFLUORIDE]	10.01 µM
CCCCCCCCC(CC)COC(=O)c1ccccc1C(=O)OCC(CC)CCCCCCCC (configuration not stated)	12.1 µM
